# Assay results from patent US6825194B2, “Hexacyclic compounds” (Chugai Seiyaku Kabushiki Kaisha, priority 2001, dated 2004).
# Where two headings read alike, the source gives them in different places.
# Key:
# [1] = converted to the inactive carboxylate form; cited from earlier work
# DLD-1 = assay: Anti-proliferative activity assay, DLD-1; type: cell-based, human; settings: DLD-1 colorectal cancer cells, 4 days, WST-8, read-out: Anti-proliferative activity assay (IC50 in nM) DLD-1 (CRC)
# Description: (§1) Antiproliferative activity assay was carried out as follows. A single suspension of tumor cells was inoculated to the serially diluted 96-well microtestplate. Then the testplate was incubated in the 5% CO2 ambience at 37° C. for 4 days (2-3×10^3 cells/well). The degree of cell growth in a monolayer was measured by using WST-8 (Dojindo, Japan). IC50 values of drugs against tumor cells were calculated as the concentration of drug yielding 50% OD of the control growth. The IC50 value measures the drug concentration for 50% of the growth of tumor cells in vitro as compared to the control.
# (§2) The anti-tumor activities of hexacyclic compounds of the formula [1A] and [1B] against in vitro growth of human tumor cell lines, HCT116 and DLD-1 of colorectal cancer (CRC) and QG56 and NCI-H460 of non small cell lung cancer (NSCLC) are summarized in Table 1. These cell lines are commercially available via the American Type Culture Collection (ATTC).
# HCT116 = assay: Anti-proliferative activity assay, HCT116; type: cell-based, human; settings: HCT116 colorectal cancer cells, 4 days, WST-8, read-out: Anti-proliferative activity assay (IC50 in nM) HCT116 (CRC)
# Description: as §1, §2
# QG56 = assay: Anti-proliferative activity assay, QG56; type: cell-based, human; settings: QG56 non small cell lung cancer cells, 4 days, WST-8, read-out: Anti-proliferative activity assay (IC50 in nM) QG56 (NSCLC)
# Description: as §1, §2
# NCI-H460 = assay: Anti-proliferative activity assay, NCI-H460; type: cell-based, human; settings: NCI-H460 non small cell lung cancer cells, 4 days, WST-8, read-out: Anti-proliferative activity assay (IC50 in nM) NCI-H460 (NSCLC)
# Description: as §1, §2
Structure (SMILES),half-life in plasma [1],"IC50 (DLD-1; Homo sapiens, 96 h) [nM]","IC50 (HCT116; Homo sapiens, HCT-116, 96 h) [nM]","IC50 (QG56; Homo sapiens, QG-56, 96 h) [nM]","IC50 (NCI-H460; Homo sapiens, 96 h) [nM]",IC50 (DLD-1) [nM],IC50 (HCT116) [nM],IC50 (QG56) [nM],IC50 (NCI-H460) [nM]
"CC[C@@]1(O)C(=O)OCc2c1cc1n(c2=O)Cc2cc3ccccc3nc2-1 [camptothecin, 4(S)-ethyl-4-hydroxy-1H-pyrano[3′,4′:6,7]indolizino[1,2-b]quinoline-3,14(4H,12H)-dione]",less than 30 min,–,–,–,–,–,–,–,–
"CC[C@@]1(O)C(=O)OCc2c1cc1n(c2=O)Cc2c-1nc1cccc3c1c2N(CCc1ccccc1)C(=O)N3 [Compound A, (9S)-9-ethyl-9-hydroxy-1-phenethyl-1H,12H-pyrano[3″,4″:6′,7′]indolizino[1′,2′:6,5]pyrido[4,3,2-de]quinazoline-2,10,13(3H,9H,15H)-trione]",–,11,1.9,7.1,6.5,–,–,–,–
"CC[C@@]1(O)C(=O)OCc2c1cc1n(c2=O)Cc2c-1nc1cccc3c1c2N(CCC(C)C)C(CO)=N3 [Compound F, (9S)-9-ethyl-9-hydroxy-2-hydroxymethyl-1-(3-methylbutyl)-1H,12H-pyrano[3″,4″:6′,7′]indolizino[1′,2′:6,5]pyrido[4,3,2-de]quinazoline-10,13(9H,15H)-dione]",–,12,3.1,7.4,4.8,–,–,–,–
"CCc1c2c(nc3ccc(O)cc13)-c1cc3c(c(=O)n1C2)COC(=O)[C@]3(O)CC [SN-38, 7-ethyl-10-hydroxycamptothecin, reference compound]",–,–,–,–,–,53,6.9,27,21
"CCCCCN1C(C)=Nc2cccc3nc4c(c1c23)Cn1c-4cc2c(c1=O)COC(=O)[C@]2(O)CC [Compound E, (9S)-9-ethyl-9-hydroxy-2-methyl-1-pentyl-1H,12H-pyrano[3″,4″:6′,7′]indolizino[1′,2′:6,5]pyrido[4,3,2-de]quinazoline-10,13(9H,15H)-dione]",–,15,4.5,15,7.9,–,–,–,–
"CCCCCN1C=Nc2cccc3nc4c(c1c23)Cn1c-4cc2c(c1=O)COC(=O)[C@]2(O)CC [Compound B, (9S)-9-ethyl-9-hydroxy-1-pentyl-1H,12H-pyrano[3″,4″:6′,7′]indolizino[1′,2′:6,5]pyrido[4,3,2-de]quinazoline-10,13(9H,15H)-dione]",–,23,6.1,7.7,7,–,–,–,–
"CC[C@@]1(O)C(=O)OCc2c1cc1n(c2=O)Cc2c-1nc1cccc3c1c2NC(=S)N3CCC(C)C [Compound D, (9S)-9-ethyl-9-hydroxy-1-(3-methylbutyl)-2(3H)-thioxo-1H,12H-pyrano[3″,4″:6′,7′]indolizino[1′,2′:6,5]pyrido[4,3,2-de]quinazoline-10,13(9H,15H)-dione]",–,–,–,–,–,15,5.1,17,10
